Data set [1] has as its system caspase-3, -6 and -8. Briefly: Caspase cleavage activity of cell extracts, statements covering DEVD, VEID and IETD peptides together. The data set is classed as cell-based, human. To be noted: for protease activity on DEVD, VEID and IETD peptides, single treatment: FIG. 7: verteporfin 5 ng/ml with light, FasL 7.5 ng/ml or TRAIL 20 ng/ml alone. As for the experimental part:
The human Jurkat T cell line containing a neomycin resistance gene was obtained from Dr. Charles Rudin (University of Chicago). Cells were maintained in RPMI 1640 medium containing 10% heat-inactivated fetal calf serum (FCS) with penicillin (100 U/mL), streptomycin (100 μg/mL), 20 mM HEPES, 2 mM L-glutamine and G418 (1 μg/ml) purchased from Gibco BRL (Burlington, Ontario) in a CO2 incubator at 37° C. To elicit apoptosis with PDT, Jurkat cells were incubated with different amounts of liposomally formulated benzoporphyrin derivative monoacid ring A (BPD-MA, verteporfin, QLT PhotoTherapeutics, Inc., Vancouver, Canada) for one hour at 37° C. under light-protected conditions. The culture medium used for experiments was identical to that used for the passage of the cells except that FCS was used at a concentration of 5%. Experiments were conducted either in 6-well culture plates at 5×10^6 cells in a volume of 4 ml per well or in 96-well microtiter plates at 1×10^5 cells per well at 0.2 ml per well. Cells were irradiated with light of a wavelength of 690 nm delivered at 65-73 mW/sec from light emitting diodes (LED) to achieve a total light dose of 5 J/cm^2. Cells were returned to the incubator until required for analysis.
FasL and TRAIL as used were recombinant preparations. FasL was obtained from Upstate Biotechnology (Lake Placid NY) and corresponded to amino acids 103-281 of the soluble domain of human FasL. TRAIL was obtained from BIOMOL Research Laboratories (Plymouth Meeting, Pa.) and corresponded to residues 114-281 of the soluble domain of human TRAIL. FasL and TRAIL were usually added immediately following the treatment of cells with PDT, although in one series of experiments these factors were added at 1, 2 or 3 hours post-irradiation.
Whole cell lysates were prepared by washing 1×10^7 cells per sample twice with ice-cold PBS. Cells were disrupted with 1 mL of lysis buffer [1% Nonidet P-40 detergent (NP-40), 20 mM Tris-HCl, pH 8.0, 137 mM NaCl, 10% glycerol, 1 mM phenylmethylsulfonyl fluoride (PMSF) aprotinln (0.15 U/mL) and 1 mM sodium orthovanadate] for 20 minutes on ice. Lysates were centrifuged for 10 minutes at 15,800×g at 4° C.
These sequences are denoted by letter codes for each amino acid. To evaluate relative DEVDase (caspases 3 and 7), VEIDase (caspase 6) and IETDase (caspase 8) cleavage activity, Jurkat cell lysates were incubated with caspase-specific fluorescent substrates as described by Granville et al. (“Photodynamic therapy induces caspase-3 activation in HL-60 cells”, Cell Death Differ., 4, 623-629 (1997)). Briefly, lysates were incubated with reaction buffer (20 mM Tris pH 7.5, 137 mM NaCl, 1% NP-40, 10% glycerol) containing 100 μM of the caspase substrates Ac-DEVD-AMC (Calbiochem, Cambridge, Mass.), Ac-VEID-AMC (Calbiochem, Cambridge, Mass.), Ac-lETD-AMC (BIOMOL, Plymouth Meeting Pa.), and Ac-LEHD-AMC (Calbiochem, Cambridge, Mass.). The letter codes for the amino acid residues present within the inhibitor peptides are as following: D=aspartic acid; E=glutamic acid; H=histidine; I=isoleucine; T=threonine; V=valine. The reaction mixture was incubated at 37° C. for 1 (DEVD.AMC) or 24 (VEID.AMC and IETH.AMC) h and fluorescence was measured using an excitation at 380 nm and an emission wavelength of 460 nm with a CytoFluor™ 2350 fluorescent measuring system (Perseptive Biosystems, Burlington, Ont).

In data set [2] the test system is HeLa/Bcl-2 cells. Kind of data set: MTT cell viability assay. The data set is classed as cell-based. As for the experimental part:
(§1) HeLa cells were from the American Type Culture Collection (Manassas, Va.). Cells were grown in Dulbecco's modified Eagles medium (DMEM) supplemented with penicillin (100 U/ml), streptomycin (100 μg/ml), 2 mM L-glutamine, 1 mM HEPES buffer, and 10% heat-inactivated fetal bovine serum (FBS). HeLa cells over-expressing Bcl-2 and Bcl-xL were generated as described (Vander Heiden et al.). Briefly, Bcl-2 and Bcl-xL inserts were cloned into an EcoRI site of a pSFFV-neo vector (Fuhlbrigge et al.). Vectors containing inserts, or no insert (neo), were transfected into HeLa cells by electroporation. After selection in G418 (Gibco/BRL Life Technologies), cells were cloned by limiting dilution and transfectants screened for Bcl-xL or Bcl-2 by Western blot analysis. Transfected cell lines were maintained in complete DMEM with G418 (10 μg/ml).
(§2) For treatments with TRAIL and PDT, cells were incubated with 0-100 ng/ml verteporfin for 60 min at 37° C. in complete DMEM with 2% FBS or incubated with medium alone. Cells were light protected or exposed to blue fluorescent light to give a total dose of 1 J/cm^2. For experiments where cells were treated with 0-1000 ng/ml TRAIL (BIOMOL, Plymouth Meeting, Pa.), this compound was added immediately after light treatment to HeLa cells in complete DMEM with 10% FBS. Cells were maintained at 37° C. with 5% CO2
(§3) To assess their viability, cells were cultured in 96-well microtiter plates and the MTT (3-(4,5)-dimethylthiazol-2-yl)-2,5-diphenyl tetrazolium bromide) calorimetric assay was performed as described (Mosmann et al.) with modifications. Following treatment, culture medium was decanted and replaced with complete DMEM containing 10% FBS. At 24 h following treatment, culture medium was aspirated and 50 μg of MTT in 100 μl of DMEM containing 2% FBS was added to each well. The reaction was stopped 2 h later by the addition of 150 μl of acidified isopropanol. Color development was measured at 590 nm with a microtiter plate reader. The result obtained for PDT, TRAIL or TRAIL plus PDT treatments was compared to the MTT value obtained for cells not given any treatment and expressed as percentages (%) of the control result.

Data set [3] concerns HeLa/neo cells. Briefly: MTT cell viability assay. The data set is classed as cell-based. As for the experimental part:
as §1, §2, §3

Data set [4] has as its system HeLa/Bcl-xL cells. Kind of data set: MTT cell viability assay. The data set is classed as cell-based. As for the experimental part: as §1, §2, §3
On the technique in general: Tetrazolium dyes change colour on reduction, which living cells bring about.

Where [5] appears, read: TRAIL in combination with verteporfin PDT, 24 hours.
Where [6] appears, read: TRAIL up to 25 ng/ml, 24 hours post-treatment.
The mark [7] stands for this setting: PDT with verteporfin at 25 or 50 ng/ml, blue fluorescent light 1 J/cm^2, 24 hours.

“Also recorded” adds a separate entry of the source.

Consider “TRAIL: recombinant, residues 114-281 of the soluble domain of human TRAIL (BIOMOL)”, for which the “caspase activity compared with the treatments given independently” value in data set [1] (FIG. 7: factor combined with PDT (verteporfin 5 ng/ml, 5 J/cm^2), 3 hours) was “higher caspase activity”. Further, the “protease activity on DEVD, VEID and IETD peptides, single treatment” value in data set [1] (3 hours) is “modestly increased”. Further, the “caspase activity compared with PDT or TRAIL applied independently” value in data set [1] (TRAIL 20 ng/ml plus PDT, each verteporfin concentration, 3 hours) was “higher”. In addition, in data set [1] (factor plus verteporfin in the absence of light irradiation), the “protease activity compared with FasL or TRAIL alone” value was “no different”. Also, the cell viability entry in data set [2] (TRAIL at 500 ng/ml, 24 hours) is “a significant degree of protection against TRAIL”; in data set [2] (setting [6]) it was “little or no loss of cell viability”; in data set [3] (TRAIL at 500 ng/ml, 24 hours), “a complete loss of viability”; in data set [3] (TRAIL at 50 and 100 ng/ml, 24 hours), “a loss in viability”; in data set [3] (setting [6]), “little or no loss of cell viability”; in data set [4] (TRAIL at 500 ng/ml, 24 hours) it was “a significant degree of protection against TRAIL”. Further, the cell viability result in data set [4] (setting [6]) was “little or no loss of cell viability”. For the same substance, the “cell viability compared with PDT or TRAIL alone and with the expected additive effect” value in data set [2] (setting [5]), in data set [3] (setting [5]) and in data set [4] (setting [5]) was “significantly decreased cell viability” throughout.
For the substance “benzoporphyrin derivative monoacid ring A [verteporfin, reference compound]”, the “protease activity on DEVD, VEID and IETD peptides, single treatment” value in data set [1] (3 hours) was “modestly increased”. Moreover, the “verteporfin concentration at which the effect of PDT on caspase activity was greatest” value in data set [1] (light 5 J/cm^2, extracts 3 hours post-PDT) amounted to 5 ng/mL. Moreover, the “effect of PDT alone on DEVDase-, VEIDase- and IETDase-like activity” value in data set [1] (verteporfin and light 5 J/cm^2, no FasL or TRAIL, 3 hours post-PDT) was “promoted DEVDase-like, VEIDase-like and IETDase-like activity; also recorded: increased levels of DEVDase-like, VEIDase-like and IETDase-like activity”. Further, the cell viability result in data set [2] (setting [7]), in data set [3] (setting [7]) and in data set [4] (setting [7]) was “some loss in viability” throughout.

Source of the values: patent publication US20030008857A1, “Photodynamic therapy (PDT) in combination with factors that bind cell surface apoptosis-inducing receptors” (priority 1999, published 2003).
